From patent publication US10308631B2, “Selective anti-cancer compounds” (NATIONAL UNIVERSITY OF SINGAPORE, priority 2015, dated 2019)

Key:
[1] = tested on: HeLa cells (mitotic spindles, β-tubulin/DAPI); assay: Immunofluorescence analysis of mitotic spindles and chromosomes; type: cell-based, human; details: 6 h, Compound 1 2.5 μM, CQ 15 or 25 μM
Description: HeLa cells, treated with Compound 1 (a131) at 2.5 μM (FIG. 3b), chloroquine (CQ) at 15 μM (FIG. 3c) or 25 μM (FIG. 3d), or DMSO (FIG. 3a) for 6 h, were fixed in methanol and subjected to immunofluorescence analysis using antibodies against β-tubulin to visualize proper formation of mitotic spindles. The condensed mitotic chromosomes were visualized by counterstaining with DAPI. Only Compound 1 (a131)-treated HeLa cells arrested in mitosis with misaligned chromosomes and disorganized spindles (FIG. 3b). The bars in FIGS. 3a-d represent 5 μm in length.
To confirm the inhibitory mitotic progression ability, HeLa cervical cancer cells as cultured above were treated with Compound 1 (2.5 μM, DMSO), CQ (15 or 25 μM, DMSO) or DMSO for 6 h. The treated cells were fixed in methanol and subjected to immunofluorescence analysis using antibodies against β-tubulin (Abcam, Cat#ab52623) to visualize proper formation of mitotic spindles. The condensed mitotic chromosomes were visualized by counterstaining with DAPI.

[2] = tested on: non-transformed normal BJ cells; assay: Reversibility of cell cycle arrest after wash-out (cell counting); type: cell-based, human; details: 5 μM for 2, 3, 6 or 11 days, then wash-out
Source text: Non-transformed normal BJ cells were synchronized in G1 phase of the cell cycle by culturing in serum-starved conditions (0.1% FBS) for 2 days. Subsequently, cells were synchronously released in fresh media with 10% FBS and further treated with Compound 1 (a131) for 2, 3, 6 or 11 days. After treatment for the required amount of time, Compound 1 (a131) was removed by washing cells twice with fresh media, and culturing of the washed cells was continued in fresh media for up to 11 days. Cells were harvested and total numbers of cells, counted using automated Sceptor cell counter, were plotted with standard deviation (triplicates).
As shown in Biology Examples 5 and 7, Compound 1 and its derivatives, which inhibit both lysosome function and mitosis, induce cell death only in transformed BJ cells, while inducing cell cycle arrest in isogenic non-transformed BJ cells. However, it was not fully clear if the cell cycle arrest was permanent or reversible. Therefore, to evaluate whether the effect was permanent or reversible, non-transformed normal BJ cells were synchronized in the G1 phase of the cell cycle by culturing them in DMEM media with 0.1% FBS for 2 days. […] At various time-points, the adherent cells were harvested with trypsin (Invitrogen) and the total number of cells was counted using automated Sceptor cell counter (Millipore).

[3] = tested on: isogenic non-transformed (normal) BJ cells; assay: PI staining and FACS analysis, sub-G1 cell death; type: cell-based, human; details: 48 h
Description: FIG. 5A is a histogram showing the ability of Compound 1 (a131) and its derivatives Compound 2 (a156), Compound 16 (b5), Compound 17 (b9), all in Group 1; Compound 29 (a219), Compound 13 (b12), Compound 11 (b15), Compound 12 (b16), Compound 25 (a166), all in Group 2; and Compound 3 (a159) from Group 3, to induce cancer selective cell death. Isogenic non-transformed (normal) and oncogene-transformed BJ cells were treated with each compound for 48 h and cells were stained with propidium iodide (PI) and subjected to FACS analysis. The percentage of cells in sub-G1 phase is indicative of the extent of cell death. […] In contrast, the ability of the compounds in Groups 2 and 3 to induce cancer selective cell death was markedly compromised (or reduced).
The Compounds 25 (a166) and 3 (a159) were selected from Group 2 and Group 3, respectively. Isogenic non-transformed normal and oncogene-transformed BJ cells were treated with or without 0.3 μM or 0.6 μM Compound 3 (a159) alone or together with 1.25 μM Compound 25 (a166) for 48 h. Cells were stained with propidium iodide (PI) and subjected to FACS analysis.
Isogenic non-transformed and oncogene-transformed human fibroblast BJ cell lines were cultured in DMEM supplemented with 10% FBS. The cells were treated with Compound 1 (2.5 μM, DMSO). 48 h after treatment, the cells were fixed with ethanol at −30° C. overnight and stained with 20 μg/mL propidium iodide (PI) and 10 μg/mL RNase A for 30 min. These cells were then subjected to flow cytometry (FACS) analysis using MACSQuant (Miltenyi Biotec) to count the percentage of apoptotic cells in sub-G1 peak.
The above procedure was repeated for Group 1 Compounds 2, 16 and 17, Group 2 Compounds 29, 13, 11, 12 and 25 at a concentration of 10 μM, and Group 3 Compound 3 at a concentration of 5 μM.
Isogenic non-transformed normal and oncogene-transformed BJ cells were cultured as in Biology Example 3. The cells were treated with a combination of Compound 3 (Group 3, at a concentration of 0.3 μM or 0.6 μM), and Compound 25 (Group 2, at a concentration of 1.25 μM) for 48 hours. Controls using DMSO, Compound 3 and Compound 25 alone (at the concentrations mentioned above) were also performed.

HCT-15 tumour sections = assay: Immunofluorescence analysis of xenograft tumour sections; type: in vivo, mice; details: 80 mg/kg, 12 days, vs control vehicle
Description: A, B: is a graphical representation of tumour volumes estimated periodically as indicated. Mice bearing established tumour xenografts using HCT15 or MDA-MB-231 cells were treated orally (PO) or intraperitoneally (IP) twice a day with the indicated doses of Compound 1 or Compound 16 for 12 or 15 days. Paclitaxel (PTX) was given intravenously at dose of 40 mg/kg, 3 times every 4 days. Error bars show ±S.D. from mean tumour volumes obtained from 6 mice. Student's t-test was performed to determine the statistical significance (*=p<0.005). C: is a bar graph showing quantification of cells (n>100 per condition) with misaligned chromosomes and multipolar mitotic-spindles. […] tumour sections treated with Compound 16 (80 mg/kg) or control vehicle for 12 days were stained with anti-β-tubulin antibodies and DAPI. The percentage of cells with misaligned chromosomes and multipolar mitotic-spindles was quantified and plotted with mean values±S.D.
To confirm the antimitotic efficacy of Compound 16 (b5) in vivo, immunofluorescence analysis of HCT-15 tumor sections treated with Compound 16 (80 mg/kg) or control vehicle for 12 days were stained with anti-β-tubulin antibodies and DAPI.

For `N#C/C(=C\c1cccc2cnccc12)c1c[nH]c2ccccc12` [Compound 1, (Z)-2-(1H-indol-3-yl)-3-(isoquinolin-5-yl)acrylonitrile], the “mitotic arrest, chromosome alignment and mitotic spindles” value [1] was “arrested in mitosis with massively misaligned chromosomes and disorganized mitotic spindles” and the “recovery of proliferation after removal of compound” value [2] was “removal of Compound 1 from the media is sufficient to enable these cells to recover from cell cycle arrest”.
`N#C/C(=C\c1cccc2ncccc12)c1c[nH]c2ccccc12` [Compound 3, (Z)-2-(1H-indol-3-yl)-3-(quinolin-5-yl)acrylonitrile] was tested, and the “cell death (population of cells in sub-G1)” value ([3]; normal BJ cells (FIG. 5A)) was “significantly induced cell death” and the cell death ([3]; Compound 3 0.3 or 0.6 μM, Compound 25 1.25 μM, alone or in combination) was “did not lead to a significant increase in cell death”.
For `CN1CCN(CC(=O)n2cc(/C(C#N)=C/c3cccc4cnccc34)c3ccccc32)CC1` [Compound 16, (Z)-3-(isoquinolin-5-yl)-2-(1-(2-(4-methylpiperazin-1-yl)acetyl)-1H-indol-3-yl)acrylonitrile], the “cancer cells with misaligned chromosomes and multipolar mitotic-spindles” value (HCT-15 tumour sections) was “significantly increased the number of cancer cells harbouring massively misaligned chromosomes with multipolar mitotic-spindles”.
